Target: T1, recombinant human mPGES-1 (Homo sapiens, UniProt O14684)
T1 construct: made in house; host or cells: Rosetta E. coli (microsomal/membrane fraction)
T1 sequence (O14684 1-152): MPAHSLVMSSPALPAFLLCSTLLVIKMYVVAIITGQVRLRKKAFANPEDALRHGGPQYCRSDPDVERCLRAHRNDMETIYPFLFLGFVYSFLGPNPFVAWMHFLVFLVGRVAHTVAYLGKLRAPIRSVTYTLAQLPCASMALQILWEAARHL
Test: mPGES-1 inhibition test (microsomes, HTRF detection of PGE2)
Assay type: biochemical
Protocol: Microsomes from Rosetta E. coli bacteria expressing recombinant human mPGES-1 is dissolved in 0.1 M KPi pH 7.4 buffer containing 2.5 mM GSH. 50 μl of the enzyme is subsequently dispensed in a 384-well plate. 0.5 μl of the inhibitor dissolved in DMSO at is thereafter added to each well and incubated for 25 minutes at room temperature.
Subsequently, 2 μl of PGH2 dissolved in an appropriate solvent is added to each well and after one minute the acidified stop solution containing FeCl2 is added. 4 μl of the total volume is transferred to a separate plate and diluted 750-fold in two separate steps before HTRF detection of PGE2.
The HTRf detection is performed by the use of a commercially available kit from CisBio essentially according to the manufacturer's protocol. Briefly, 10 μl of the diluted sample is transferred to a white 384-well plate. 5 μl of d2 and 5 μl Eu3+-Cryptate labeled anti-PGE2 is added to each well containing samples by the use of a Multidrop. The plate is covered with a plastic self-adhesive film, centrifuged at 1200 rpm for 1 minute and subsequently stored at +4° C. over night.
After over night incubation the fluorescence is measured by the use of an appropriate microplate reader. The fluorescence of europium cryptate, and d2 are measured using the following excitation and emission wavelength, europium cryptate: λmax^ex=307 nm, λmax^em=620 nm and d2: λmax^ex=620 nm, λmax^em=665 nm), respectively. The extent of the specific FRET is measured as a ratio of the emission intensity at 665 nm vs. that at 620 nm. A standard curve using synthetic PGE2 is used to quantify the amount of PGE2 in unknown samples.

Cn1c(Nc2c(F)cccc2Cl)nc2cc(C(=O)NC3CCC(C)(C)CC3)ncc21 [Example 389, 2-(2-Chloro-6-fluorophenylamino)-N-(4,4-dimethylcyclohexyl)-3-methyl-3H-imidazo[4,5-c]-pyridine-6-carboxamide]
inhibition at 10 µM: 100%
